Among the test systems are A549 NSCLC; SF-268 CNS; LOX IMVI melanoma; RXF 393 renal; SK-MEL-28 melanoma; TK-10 renal; SW-620 colon; MOLT-4 leukemia; SK-OV-3 ovarian; MALME-3M melanoma.
Common to all, as to test: DTP human tumour cell line panel, 48 h

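Five compound concentrations were applied to cells in 96-well plates for 48 hours; endpoints were derived by simple linear interpolation of the resulting dose-response curve. Abbreviation: GI50, concentration required for 50% inhibition of growth. TGI marks complete inhibition of growth.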 A value given as a limit tells only on which side of the number the result lay.

Turning to `CC/C=C\C[C@@H](O)C/C=C1/C(=O)C=C[C@H]1C/C=C\CCCC(=O)OC`, the GI50 in the assay with A549 NSCLC was 3.75 µM; with SF-268 CNS it was 3.92 µM; in the assay with LOX IMVI melanoma it was 0.329 µM; in the assay on RXF 393 renal, 1.85 µM; in the assay with SK-MEL-28 melanoma, 2.1 µM; in the assay with TK-10 renal, 11.6 µM. For the same compound, the GI50 with SW-620 colon is 2.84 µM; in the assay on MOLT-4 leukemia, 2.06 µM; in the assay on SK-OV-3 ovarian it was 6.49 µM; with MALME-3M melanoma, 2.87 µM. In addition, the TGI was 10.7 µM in the assay on A549 NSCLC; 15.3 µM with SF-268 CNS; 1.51 µM in the assay on LOX IMVI melanoma; 3.55 µM with RXF 393 renal; 5.34 µM with SK-MEL-28 melanoma; 24 µM in the assay on TK-10 renal. For the same compound, the concentration for total growth inhibition (TGI) was 8.6 µM in the assay on SW-620 colon, 5.83 µM with MOLT-4 leukemia, 19 µM in the assay on SK-OV-3 ovarian and 9.3 µM in the assay with MALME-3M melanoma.
For `O=C(CCc1nnc2sc(-c3ccc(Cl)cc3Cl)nn12)c1nc2ccccc2[nH]1`, the GI50 in the assay on A549 NSCLC is 1.88 µM; with SF-268 CNS, 0.994 µM; with LOX IMVI melanoma it was 0.233 µM; in the assay with RXF 393 renal, 0.394 µM; with SK-MEL-28 melanoma it was 0.452 µM; with TK-10 renal it was 1.29 µM. Moreover, the GI50 in the assay on SW-620 colon is 0.229 µM; with MOLT-4 leukemia it was 0.29 µM; in the assay with SK-OV-3 ovarian, 1.77 µM; with MALME-3M melanoma it was 0.821 µM. Besides, the TGI with A549 NSCLC amounted to 4.96 µM; in the assay with SF-268 CNS it was 2.85 µM; in the assay with LOX IMVI melanoma, 0.671 µM; in the assay with RXF 393 renal, 1.04 µM; in the assay with SK-MEL-28 melanoma, 1.68 µM; in the assay with TK-10 renal it was 2.77 µM. The values for the TGI with SW-620 colon, in the assay on SK-OV-3 ovarian and with MALME-3M melanoma were 0.744 µM, 3.46 µM and 3.52 µM, respectively.
As to `Nc1nc2c(nnn2C2CC(O)C(CO)O2)c(=O)[nH]1` (centres undefined), the GI50 is 20.3 µM in the assay with A549 NSCLC; 7.99 µM with SF-268 CNS; 0.92 µM in the assay on LOX IMVI melanoma; 3.05 µM in the assay on RXF 393 renal; 20.4 µM with SK-MEL-28 melanoma; greater than 100 µM with TK-10 renal. For the same compound, the GI50 in the assay on SW-620 colon is 3.74 µM; in the assay with MOLT-4 leukemia, 2.61 µM; with SK-OV-3 ovarian it was 0.937 µM; in the assay with MALME-3M melanoma it was 5.53 µM. Besides, the TGI with A549 NSCLC was greater than 100 µM; in the assay with SF-268 CNS, greater than 100 µM; with LOX IMVI melanoma it was greater than 83.2 µM; in the assay on RXF 393 renal, 33.8 µM; in the assay on SK-MEL-28 melanoma, greater than 100 µM; in the assay on TK-10 renal it was greater than 100 µM. The TGI in the assay with SW-620 colon is greater than 100 µM; with MOLT-4 leukemia it was greater than 53 µM; in the assay on SK-OV-3 ovarian, greater than 23.4 µM; in the assay on MALME-3M melanoma it was greater than 100 µM.
In the case of `CC(SC(=S)N1CCOCC1)c1cc2oc(=O)n(C)c2cc1Cl` (centres undefined), the TGI with A549 NSCLC, with SF-268 CNS, with LOX IMVI melanoma, in the assay with RXF 393 renal, with SK-MEL-28 melanoma and in the assay with TK-10 renal was greater than 100 µM each time. The TGI in the assay on SW-620 colon is greater than 10 µM; in the assay on MOLT-4 leukemia, greater than 100 µM; with SK-OV-3 ovarian, greater than 100 µM; with MALME-3M melanoma, greater than 100 µM.
On to `CCc1ccccc1NC(=O)C1=C(C)NC(C)=C(C(=O)Nc2ccccc2CC)C1c1ccc2c(c1)OCO2`, for which the TGI with A549 NSCLC is greater than 100 µM; in the assay with SF-268 CNS, greater than 100 µM; in the assay with LOX IMVI melanoma, 88.7 µM; with RXF 393 renal, 94.1 µM; in the assay with SK-MEL-28 melanoma it was greater than 100 µM; in the assay on TK-10 renal, greater than 100 µM. Moreover, the TGI in the assay with SW-620 colon is greater than 100 µM; with MOLT-4 leukemia, greater than 100 µM; with SK-OV-3 ovarian it was greater than 100 µM; with MALME-3M melanoma, 99 µM.
In the case of `Nc1nc(N(Cc2ccccc2)c2ccccc2)c2cn[nH]c2n1`, the GI50 in the assay on A549 NSCLC was 5.47 µM; in the assay on SF-268 CNS, 4.21 µM; in the assay on LOX IMVI melanoma, 3.91 µM; in the assay on RXF 393 renal, 2.93 µM; with SK-MEL-28 melanoma it was 16.9 µM; in the assay with TK-10 renal, 4.72 µM. Also, the GI50 is 3.93 µM in the assay on SW-620 colon, 3.21 µM in the assay with MOLT-4 leukemia, 3.73 µM in the assay with SK-OV-3 ovarian and 4.23 µM with MALME-3M melanoma. Also, the TGI in the assay on A549 NSCLC was greater than 100 µM; in the assay on SF-268 CNS, greater than 100 µM; with LOX IMVI melanoma, greater than 100 µM; with RXF 393 renal, 22 µM; in the assay with SK-MEL-28 melanoma it was greater than 100 µM; with TK-10 renal, greater than 100 µM. Also, the TGI in the assay on SW-620 colon, with MOLT-4 leukemia, with SK-OV-3 ovarian and in the assay on MALME-3M melanoma was greater than 100 µM in each case.
With `O=C1CCC(N2C(=O)c3ccccc3C2=O)C(=O)N1CO` (centres undefined), the GI50 with A549 NSCLC was greater than 100 µM; in the assay on SF-268 CNS, greater than 100 µM; in the assay with LOX IMVI melanoma it was 23.6 µM; with RXF 393 renal it was 43 µM; in the assay with SK-MEL-28 melanoma, greater than 100 µM; in the assay with TK-10 renal, greater than 100 µM. In addition, the GI50 was 32.4 µM with SW-620 colon, 36.2 µM with MOLT-4 leukemia, greater than 100 µM in the assay on SK-OV-3 ovarian and greater than 100 µM with MALME-3M melanoma. Also, the TGI in the assay with A549 NSCLC was greater than 100 µM; in the assay with SF-268 CNS it was greater than 100 µM; with LOX IMVI melanoma it was 58 µM; in the assay with RXF 393 renal, greater than 100 µM; in the assay with SK-MEL-28 melanoma it was greater than 100 µM; in the assay on TK-10 renal, greater than 100 µM. For the same compound, the total growth inhibition concentration (TGI) in the assay with SW-620 colon, with MOLT-4 leukemia, in the assay on SK-OV-3 ovarian and in the assay on MALME-3M melanoma was greater than 100 µM throughout.
Turning to `CC[C@@]1(c2ccccc2)C2=C(CC(C)(C)CC2=O)Nc2[nH]ncc21`, the GI50 in the assay with A549 NSCLC, in the assay on SF-268 CNS, in the assay on LOX IMVI melanoma, in the assay with RXF 393 renal, with SK-MEL-28 melanoma and in the assay on TK-10 renal was greater than 100 µM in each case. Besides, the GI50 in the assay on SW-620 colon, with MOLT-4 leukemia, in the assay with SK-OV-3 ovarian and with MALME-3M melanoma was greater than 100 µM in each case. In addition, the TGI in the assay with A549 NSCLC, in the assay on SF-268 CNS, in the assay with LOX IMVI melanoma, in the assay with RXF 393 renal, in the assay with SK-MEL-28 melanoma and with TK-10 renal was greater than 100 µM each time. Also, the TGI in the assay on SW-620 colon, with MOLT-4 leukemia, with SK-OV-3 ovarian and in the assay with MALME-3M melanoma was greater than 100 µM each time.
Take `NC1=NC(c2ccccc2)CC(c2cc(Cl)ccc2O)=N1` (centres undefined): the TGI in the assay with A549 NSCLC was found to be 29 µM; in the assay on SF-268 CNS it was 30.8 µM; in the assay with LOX IMVI melanoma, 29.5 µM; in the assay with RXF 393 renal, 32.9 µM; in the assay on SK-MEL-28 melanoma it was 33.5 µM; in the assay with TK-10 renal, 40.5 µM. Also, the TGI was 27 µM with SW-620 colon, 33.9 µM in the assay with MOLT-4 leukemia, 33 µM in the assay on SK-OV-3 ovarian and 38 µM in the assay on MALME-3M melanoma.

(Values after PubChem BioAssay (NCI).)
